Eleven molecules from patent publication US20210300924A1, “5-[6-[[3-(4,5,6,7-TETRAHYDROPYRAZOLO[4,3-C]PYRIDIN-1-YL)AZETIDIN-1-YL]METHYL]MORPHOLIN-4-YL]QUINOLINE-8-CARBONITRILE DERIVATIVES AND SIMILAR COMPOUNDS AS TLR7-9 ANTAGONISTS FOR TREATING SYSTEMIC LUPUS ERYTHEMATOSUS” (Hoffmann-La Roche Inc., priority 2018, published 2021) can be followed below.

For this assay, the target named is T1, human TLR7 (Homo sapiens, UniProt Q9NYK1).
T1 construct: host or cells: HEK293 (HEK-Blue hTLR7)
T1 sequence (Q9NYK1 27-1049): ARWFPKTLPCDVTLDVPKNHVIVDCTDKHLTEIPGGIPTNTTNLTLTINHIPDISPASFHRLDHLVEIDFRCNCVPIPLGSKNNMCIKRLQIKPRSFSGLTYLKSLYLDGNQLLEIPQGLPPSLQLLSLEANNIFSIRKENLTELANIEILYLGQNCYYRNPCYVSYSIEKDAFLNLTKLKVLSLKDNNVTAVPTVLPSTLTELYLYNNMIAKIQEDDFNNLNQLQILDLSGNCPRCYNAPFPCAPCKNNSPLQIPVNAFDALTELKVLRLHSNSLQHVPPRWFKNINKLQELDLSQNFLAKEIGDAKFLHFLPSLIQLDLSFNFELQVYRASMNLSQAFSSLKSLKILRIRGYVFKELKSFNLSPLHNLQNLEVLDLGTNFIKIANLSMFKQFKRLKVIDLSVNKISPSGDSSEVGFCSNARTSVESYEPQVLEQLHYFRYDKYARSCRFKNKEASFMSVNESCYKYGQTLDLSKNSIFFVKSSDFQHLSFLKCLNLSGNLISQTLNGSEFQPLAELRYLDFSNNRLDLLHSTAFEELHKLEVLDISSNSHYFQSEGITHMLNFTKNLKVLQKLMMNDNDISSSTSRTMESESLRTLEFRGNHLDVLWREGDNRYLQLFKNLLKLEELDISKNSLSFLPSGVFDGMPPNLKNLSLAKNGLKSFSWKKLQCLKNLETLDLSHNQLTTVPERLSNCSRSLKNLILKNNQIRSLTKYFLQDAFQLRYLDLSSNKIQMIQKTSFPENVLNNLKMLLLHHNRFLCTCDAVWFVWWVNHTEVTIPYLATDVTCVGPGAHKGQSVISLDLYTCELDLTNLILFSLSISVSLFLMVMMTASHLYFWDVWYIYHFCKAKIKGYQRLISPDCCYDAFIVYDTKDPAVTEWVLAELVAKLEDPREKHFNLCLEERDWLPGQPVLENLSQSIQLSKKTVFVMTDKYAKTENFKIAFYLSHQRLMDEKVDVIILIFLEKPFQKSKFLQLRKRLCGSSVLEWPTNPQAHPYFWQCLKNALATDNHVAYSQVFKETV
The assay is described as follows: HEK293-Blue-hTLR-7 cells assay. The assay is classed as cell-based. To be noted: HEK293-Blue-hTLR7 cells, R848 stimulation, 20 hrs, SEAP reporter; read-out: HEK/hTLR7 IC50. The text has this:
HEK293-Blue-hTLR-7 cells assay:
A stable HEK293-Blue-hTLR-7 cell line was purchased from InvivoGen (Cat. #: hkb-htlr7, San Diego, Calif., USA). These cells were originally designed for studying the stimulation of human TLR7 by monitoring the activation of NF-κB. A SEAP (secreted embryonic alkaline phosphatase) reporter gene was placed under the control of the IFN-β minimal promoter fused to five NF-κB and AP-1-binding sites. The SEAP was induced by activating NF-κB and AP-1 via stimulating HEK-Blue hTLR7 cells with TLR7 ligands. Therefore the reporter expression was declined by TLR7 antagonist under the stimulation of a ligand, such as R848 (Resiquimod), for incubation of 20 hrs. The cell culture supernatant SEAP reporter activity was determined using QUANTI-Blue™ kit (Cat. #: rep-qb1, Invivogen, San Diego, Ca, USA) at a wavelength of 640 nm, a detection medium that turns purple or blue in the presence of alkaline phosphatase.
HEK293-Blue-hTLR7 cells were incubated at a density of 250,000-450,000 cells/mL in a volume of 170 μL in a 96-well plate in Dulbecco's Modified Eagle's medium (DMEM) containing 4.5 g/L glucose, 50 U/mL penicillin, […], […], 2 mM L-glutamine, 10% (v/v) heat-inactivated fetal bovine serum with addition of 20 μL test compound in a serial dilution in the presence of final DMSO at 1% and 10 μL of 20 uM R848 in above DMEM, perform incubation under 37° C. in a CO2 incubator for 20 hrs. Then 20 μL of the supernatant from each well was incubated with 180 μL Quanti-blue substrate solution at 37° C. for 2 hrs and the absorbance was read at 620˜655 nm using a spectrophotometer. The signaling pathway that TLR7 activation leads to downstream NF-κB activation has been widely accepted, and therefore similar reporter assay was modified for evaluating TLR7 antagonist.
Consider `C[C@@H]1CN(c2ccc(C#N)c3ncccc23)C[C@H](CN2CC(n3cc4c(n3)[C@H](C)NCC4)C2)O1` (single isomer, unassigned) [Example 34], for which the IC50 turned out to be 6 nM.

On to `C[C@@H]1CN(c2ccc(C#N)c3ncccc23)C[C@H](CN2CC(n3cc4c(n3)CCNC4)C2)O1` [Example 2, 5-[(2R,6S)-2-methyl-6-[[3-(4,5,6,7-tetrahydropyrazolo[4,3-c]pyridin-2-yl)azetidin-1-yl]methyl]morpholin-4-yl]quinoline-8-carbonitrile], for which the IC50 turned out to be 25 nM. As to `CCN1CCc2cn(C3CN(C[C@H]4CN(c5ccc(C#N)c6ncccc56)C[C@@H](C)O4)C3)nc2C1` [Example 7, 5-[(2S,6R)-2-[[3-(6-ethyl-5,7-dihydro-4H-pyrazolo[3,4-c]pyridin-2-yl)azetidin-1-yl]methyl]-6-methyl-morpholin-4-yl]quinoline-8-carbonitrile], the IC50 is 8 nM. As for `C[C@@H]1Cc2c(cnn2C2CN(C[C@H]3CN(c4ccc(C#N)c5ncccc45)C[C@@H](C)O3)C2)CN1` [Example 16, 5-[(2R,6S)-2-methyl-6-[[3-[(6R)-6-methyl-4,5,6,7-tetrahydropyrazolo[4,3-c]pyridin-1-yl]azetidin-1-yl]methyl]morpholin-4-yl]quinoline-8-carbonitrile], the IC50 stood at 4 nM.

As for `Cc1c2c(nn1C1CN(C[C@H]3CN(c4ccc(C#N)c5ncccc45)C[C@@H](C)O3)C1)CCN(C)C2` [Example 15, 5-[(2S,6R)-2-[[3-(3,5-dimethyl-6,7-dihydro-4H-pyrazolo[4,3-c]pyridin-2-yl)azetidin-1-yl]methyl]-6-methyl-morpholin-4-yl]quinoline-8-carbonitrile], the IC50 was 9 nM.

For `C[C@@H]1CN(c2ccc(C#N)c3ncccc23)C[C@H](CN2CC(n3ncc4c3CNCC4)C2)O1` [Example 3, 5-[(2R,6S)-2-methyl-6-[[3-(4,5,6,7-tetrahydropyrazolo[3,4-c]pyridin-1-yl)azetidin-1-yl]methyl]morpholin-4-yl]quinoline-8-carbonitrile], the IC50 stood at 3 nM.

`Cc1nn(C2CN(C[C@H]3CN(c4ccc(C#N)c5ncccc45)C[C@@H](C)O3)C2)c2c1CCNC2` [Example 42, 5-[(2R,6S)-2-methyl-6-[[3-(3-methyl-4,5,6,7-tetrahydropyrazolo[3,4-c]pyridin-1-yl)azetidin-1-yl]methyl]morpholin-4-yl]quinoline-8-carbonitrile]: the IC50 stood at 7 nM. In the case of `C[C@@H]1CN(c2ccc(C#N)c3ncccc23)C[C@H](CN2CC(n3ncc4c3C[C@H](C)NC4)C2)O1` [Example 18, 5-[(2R,6S)-2-methyl-6-[[3-[(6S)-6-methyl-4,5,6,7-tetrahydropyrazolo[4,3-c]pyridin-1-yl]azetidin-1-yl]methyl]morpholin-4-yl]quinoline-8-carbonitrile], the IC50 is 17 nM. Next, `C[C@@H]1Cc2cn(C3CN(C[C@H]4CN(c5ccc(C#N)c6ncccc56)C[C@@H](C)O4)C3)nc2CN1` (single isomer, unassigned) [Example 30]: 5 nM.

Turning to `C[C@@H]1CN(c2ccc(C#N)c3ncccc23)C[C@H](CN2CC(n3ncc4c3CCNC4)C2)O1` [Example 1, 5-[(2R,6S)-2-methyl-6-[[3-(4,5,6,7-tetrahydropyrazolo[4,3-c]pyridin-1-yl)azetidin-1-yl]methyl]morpholin-4-yl]quinoline-8-carbonitrile], the IC50 turned out to be 10 nM. Next, `C[C@@H]1CN(c2ccc(C#N)c3ncccc23)C[C@H](CN2CC(n3cc4c(n3)C(C)(C)CNC4)C2)O1` [Example 24, 5-[(2S,6R)-2-[[3-(7,7-dimethyl-5,6-dihydro-4H-pyrazolo[4,3-c]pyridin-2-yl)azetidin-1-yl]methyl]-6-methyl-morpholin-4-yl]quinoline-8-carbonitrile]: 4 nM.
